Assay results published in PubChem BioAssay AID1963830 (Molecular Pharmacology Branch, DTP, NCI, 2024).

System: 922993-354-T-J3-PDC complex spheroid viability
Test: Anticancer human tumor 922993-354-T-J3-PDC patient-derived endometrial carcinoma cell line growth inhibition [POLQ]
Details: for IC50: curve of first compound; for viability, T/C: stronger effect = lower value
In short: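 Three-cell-type spheroids modelling solid tumor plus stroma served as the readout system; POL inhibitors were tested individually and in combination, concentration ranges set by clinical Cmax where known.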

[1] = second compound 0.0316 µM, first compound 0.0316 µM
[2] = second compound 0.0316 µM, first compound 0.1 µM
[3] = second compound 0.0316 µM, first compound 0.316 µM
[4] = second compound 0.0316 µM, first compound 1 µM
[5] = second compound 0.0316 µM, first compound 3.16 µM
[6] = second compound 0.0316 µM, first compound 10 µM
[7] = second compound 0.1 µM, first compound 0.0316 µM
[8] = second compound 0.1 µM, first compound 0.1 µM
[9] = second compound 0.1 µM, first compound 0.316 µM
[10] = second compound 0.1 µM, first compound 1 µM
[11] = second compound 0.1 µM, first compound 3.16 µM
[12] = second compound 0.1 µM, first compound 10 µM
[13] = second compound 0.316 µM, first compound 0.0316 µM
[14] = second compound 0.316 µM, first compound 0.1 µM
[15] = second compound 0.316 µM, first compound 0.316 µM
[16] = second compound 0.316 µM, first compound 1 µM
[17] = second compound 0.316 µM, first compound 3.16 µM
[18] = second compound 0.316 µM, first compound 10 µM
[19] = second compound 1 µM, first compound 0.0316 µM
[20] = second compound 1 µM, first compound 0.1 µM
[21] = second compound 1 µM, first compound 0.316 µM
[22] = second compound 1 µM, first compound 1 µM
[23] = second compound 1 µM, first compound 3.16 µM
[24] = second compound 1 µM, first compound 10 µM
[25] = second compound 3.16 µM, first compound 0.0316 µM
[26] = second compound 3.16 µM, first compound 0.1 µM
[27] = second compound 3.16 µM, first compound 0.316 µM
[28] = second compound 3.16 µM, first compound 1 µM
[29] = second compound 3.16 µM, first compound 3.16 µM
[30] = second compound 3.16 µM, first compound 10 µM
[31] = second compound 10 µM, first compound 0.0316 µM
[32] = second compound 10 µM, first compound 0.1 µM
[33] = second compound 10 µM, first compound 0.316 µM
[34] = second compound 10 µM, first compound 1 µM
[35] = second compound 10 µM, first compound 3.16 µM
[36] = second compound 10 µM, first compound 10 µM
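Note: spheroids exposed to the agents for one week.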
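Throughout, for viability, T/C: 100% = DMSO vehicle control wells.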

C#Cc1c(F)ccc2cc(O)cc(-c3ncc4c(N5CC6CCC(C5)N6)nc(OCC56CCCN5CC(F)C6)nc4c3F)c12 (stereo not drawn) + Cc1cccc(N(C)C(=O)C2C(O)CCN2c2nc(C)cc(C(F)(F)F)c2C#N)c1
IC50 (second compound 0.0316 µM): > 10 µM
IC50 (second compound 0.1 µM): > 10 µM
IC50 (second compound 0.316 µM): > 10 µM
IC50 (second compound 1 µM): > 10 µM
IC50 (second compound 3.16 µM): > 10 µM
IC50 (second compound 10 µM): > 10 µM
viability, T/C [1]: 107%
viability, T/C [2]: 102%
viability, T/C [3]: 104%
viability, T/C [4]: 106%
viability, T/C [5]: 95.8%
viability, T/C [6]: 91.3%
viability, T/C [7]: 107%
viability, T/C [8]: 95%
viability, T/C [9]: 94%
viability, T/C [10]: 93.7%
viability, T/C [11]: 87.9%
viability, T/C [12]: 98.7%
viability, T/C [13]: 109%
viability, T/C [14]: 108%
viability, T/C [15]: 98.5%
viability, T/C [16]: 101%
viability, T/C [17]: 95%
viability, T/C [18]: 91.7%
viability, T/C [19]: 102%
viability, T/C [20]: 107%
viability, T/C [21]: 98.7%
viability, T/C [22]: 94.5%
viability, T/C [23]: 97.8%
viability, T/C [24]: 89.2%
viability, T/C [25]: 106%
viability, T/C [26]: 101%
viability, T/C [27]: 104%
viability, T/C [28]: 104%
viability, T/C [29]: 99.5%
viability, T/C [30]: 86.2%
viability, T/C [31]: 103%
viability, T/C [32]: 97.2%
viability, T/C [33]: 98.1%
viability, T/C [34]: 94.8%
viability, T/C [35]: 100%
viability, T/C [36]: 78.4%

C=CC(=O)N1CCN(c2nc(=O)n(-c3c(C)ccnc3C(C)C)c3nc(-c4c(O)cccc4F)c(F)cc23)C(C)C1 (stereo not drawn) + Cc1cccc(N(C)C(=O)C2C(O)CCN2c2nc(C)cc(C(F)(F)F)c2C#N)c1
IC50 (second compound 0.0316 µM): > 10 µM
IC50 (second compound 0.1 µM): > 10 µM
IC50 (second compound 0.316 µM): > 10 µM
IC50 (second compound 1 µM): > 10 µM
IC50 (second compound 3.16 µM): > 10 µM
IC50 (second compound 10 µM): > 10 µM
viability, T/C [1]: 100%
viability, T/C [2]: 105%
viability, T/C [3]: 106%
viability, T/C [4]: 113%
viability, T/C [5]: 102%
viability, T/C [6]: 93.2%
viability, T/C [7]: 104%
viability, T/C [8]: 103%
viability, T/C [9]: 103%
viability, T/C [10]: 108%
viability, T/C [11]: 97.8%
viability, T/C [12]: 102%
viability, T/C [13]: 105%
viability, T/C [14]: 99.2%
viability, T/C [15]: 103%
viability, T/C [16]: 104%
viability, T/C [17]: 92.2%
viability, T/C [18]: 96.8%
viability, T/C [19]: 103%
viability, T/C [20]: 95.2%
viability, T/C [21]: 100%
viability, T/C [22]: 102%
viability, T/C [23]: 101%
viability, T/C [24]: 105%
viability, T/C [25]: 108%
viability, T/C [26]: 103%
viability, T/C [27]: 102%
viability, T/C [28]: 98.9%
viability, T/C [29]: 102%
viability, T/C [30]: 106%
viability, T/C [31]: 93.7%
viability, T/C [32]: 101%
viability, T/C [33]: 97.9%
viability, T/C [34]: 99.8%
viability, T/C [35]: 111%
viability, T/C [36]: 112%

CC(C)n1c(=O)n(C)c2cnc3cc(F)c(-c4ccc(OCCCN5CCCCC5)nc4)cc3c21 + Cc1cccc(N(C)C(=O)C2C(O)CCN2c2nc(C)cc(C(F)(F)F)c2C#N)c1
IC50 (second compound 0.0316 µM): > 10 µM
IC50 (second compound 0.1 µM): > 10 µM
IC50 (second compound 0.316 µM): > 10 µM
IC50 (second compound 1 µM): > 10 µM
IC50 (second compound 3.16 µM): > 10 µM
IC50 (second compound 10 µM): > 10 µM
viability, T/C [1]: 101%
viability, T/C [2]: 99.8%
viability, T/C [3]: 99.9%
viability, T/C [4]: 106%
viability, T/C [5]: 97.4%
viability, T/C [6]: 66.9%
viability, T/C [7]: 95.3%
viability, T/C [8]: 108%
viability, T/C [9]: 108%
viability, T/C [10]: 97.9%
viability, T/C [11]: 81.3%
viability, T/C [12]: 74.4%
viability, T/C [13]: 114%
viability, T/C [14]: 109%
viability, T/C [15]: 104%
viability, T/C [16]: 102%
viability, T/C [17]: 88.2%
viability, T/C [18]: 77%
viability, T/C [19]: 114%
viability, T/C [20]: 112%
viability, T/C [21]: 110%
viability, T/C [22]: 99.7%
viability, T/C [23]: 90.7%
viability, T/C [24]: 68.9%
viability, T/C [25]: 100%
viability, T/C [26]: 109%
viability, T/C [27]: 102%
viability, T/C [28]: 90.8%
viability, T/C [29]: 95.5%
viability, T/C [30]: 80.3%
viability, T/C [31]: 101%
viability, T/C [32]: 104%
viability, T/C [33]: 107%
viability, T/C [34]: 92.4%
viability, T/C [35]: 92.3%
viability, T/C [36]: 70.5%

CCc1cc2c(N3CCc4c(cc(Cn5ccnc5)cc4-c4cn(C)nc4C(F)(F)F)C3=O)cc(C)nc2c(OC)n1 + Cc1cccc(N(C)C(=O)C2C(O)CCN2c2nc(C)cc(C(F)(F)F)c2C#N)c1
IC50 (second compound 0.0316 µM): > 10 µM
IC50 (second compound 0.1 µM): > 10 µM
IC50 (second compound 0.316 µM): > 10 µM
IC50 (second compound 1 µM): > 10 µM
IC50 (second compound 3.16 µM): > 10 µM
IC50 (second compound 10 µM): > 10 µM
viability, T/C [1]: 101%
viability, T/C [2]: 105%
viability, T/C [3]: 109%
viability, T/C [4]: 107%
viability, T/C [5]: 102%
viability, T/C [6]: 91.7%
viability, T/C [7]: 109%
viability, T/C [8]: 101%
viability, T/C [9]: 108%
viability, T/C [10]: 105%
viability, T/C [11]: 106%
viability, T/C [12]: 97%
viability, T/C [13]: 103%
viability, T/C [14]: 103%
viability, T/C [15]: 107%
viability, T/C [16]: 108%
viability, T/C [17]: 110%
viability, T/C [18]: 98.7%
viability, T/C [19]: 102%
viability, T/C [20]: 103%
viability, T/C [21]: 107%
viability, T/C [22]: 105%
viability, T/C [23]: 108%
viability, T/C [24]: 101%
viability, T/C [25]: 103%
viability, T/C [26]: 104%
viability, T/C [27]: 106%
viability, T/C [28]: 105%
viability, T/C [29]: 104%
viability, T/C [30]: 99.7%
viability, T/C [31]: 93.4%
viability, T/C [32]: 104%
viability, T/C [33]: 105%
viability, T/C [34]: 102%
viability, T/C [35]: 107%
viability, T/C [36]: 98.2%
